Results published in the supplement of paper PMC4862054.

Assays:
Experiment in all cases: normalised response (% of control), CellTiter-Glo; higher = more viable cells (100 = DMSO, 0 = benzethonium chloride kill control)
Conditions in all cases: incubation time: 72 h
CAL-120 = test system: CAL-120
Procedure: (§1)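 DSRT, 72 h incubation, CellTox Green / CellTiter-Glo readout. Signal is normalised to DMSO and benzethonium chloride controls. Value is the normalised response at the highest dose.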

MDA-MB-453 = test system: MDA-MB-453
Procedure: as §1

Hs578T = test system: Hs578T
Procedure: as §1

BT-549 = test system: BT-549
Procedure: as §1

SK-BR-3 = test system: SK-BR-3
Procedure: as §1

HCC1599 = test system: HCC1599
Procedure: as §1

MFM-223 = test system: MFM-223
Procedure: as §1

CAL-51 = test system: CAL-51
Procedure: as §1

HDQ-P1 = test system: HDQ-P1
Procedure: as §1

MDA-MB-468 = test system: MDA-MB-468
Procedure: as §1

HCC1937 = test system: HCC1937
Procedure: as §1

BT-474 = test system: BT-474
Procedure: as §1

CAL-148 = test system: CAL-148
Procedure: as §1

CAL-85-1 = test system: CAL-85-1
Procedure: as §1

HCC1143 = test system: HCC1143
Procedure: as §1

MCF-10A = test system: MCF-10A
Procedure: as §1

MDA-MB-231 = test system: MDA-MB-231
Procedure: as §1

DU-4475 = test system: DU-4475
Procedure: as §1

Cc1ccc(NC(=O)c2ccc(CN3CCN(C)CC3)cc2)cc1Nc1nc(-c2cccnc2)cs1 [Masitinib] (10000 nM)
normalised response (CAL-120): 80.8% | normalised response (MDA-MB-453): 55.6% | normalised response (Hs578T): 96.6% | normalised response (BT-549): 59.5% | normalised response (SK-BR-3): 31.8% | normalised response (HCC1599): 49.6% | normalised response (MFM-223): 73% | normalised response (CAL-51): 59.1% | normalised response (HDQ-P1): 75.5% | normalised response (MDA-MB-468): 36.6% | normalised response (HCC1937): 65% | normalised response (BT-474): 33.2% | normalised response (CAL-148): 97.7% | normalised response (CAL-85-1): 64.4% | normalised response (HCC1143): 80.5% | normalised response (MCF-10A): 91.6% | normalised response (MDA-MB-231): 51.5% | normalised response (DU-4475): 99.4%

O=C(Nc1cccnc1)N1CCC(Cc2cccc(Oc3ccc(C(F)(F)F)cn3)c2)CC1 [PF-3845] (10000 nM)
normalised response (CAL-120): 86% | normalised response (MDA-MB-453): 74.7% | normalised response (Hs578T): 92.1% | normalised response (BT-549): 71.7% | normalised response (SK-BR-3): 57.1% | normalised response (HCC1599): 46.2% | normalised response (MFM-223): 75.7% | normalised response (CAL-51): 44.6% | normalised response (HDQ-P1): 95.2% | normalised response (MDA-MB-468): 49.1% | normalised response (HCC1937): 75.3% | normalised response (BT-474): 93.3% | normalised response (CAL-148): 88.4% | normalised response (CAL-85-1): 89.7% | normalised response (HCC1143): 86.1% | normalised response (MCF-10A): 93.4% | normalised response (MDA-MB-231): 89.1% | normalised response (DU-4475): 85%

COc1cc(OC2CCN(C)CC2)ccc1Nc1ncc2c(n1)n(C1CCCC1)c(=O)n2C [AZ 3146] (10000 nM)
normalised response (CAL-120): 81% | normalised response (MDA-MB-453): 95.7% | normalised response (Hs578T): 63% | normalised response (BT-549): 64.3% | normalised response (SK-BR-3): 52.4% | normalised response (HCC1599): 37.8% | normalised response (MFM-223): 72.1% | normalised response (CAL-51): 48.9% | normalised response (HDQ-P1): 70.6% | normalised response (MDA-MB-468): 28.6% | normalised response (HCC1937): 70.3% | normalised response (BT-474): 59.9% | normalised response (CAL-148): 58.7% | normalised response (CAL-85-1): 51.7% | normalised response (HCC1143): 70.4% | normalised response (MCF-10A): 47.8% | normalised response (MDA-MB-231): 62.3% | normalised response (DU-4475): 79.1%

N#Cc1ccc(COC[C@H]2O[C@@H](n3c(NCc4ccc(Cl)c(Cl)c4)nc4c(N)ncnc43)[C@H](O)[C@@H]2O)cc1 (10000 nM)
normalised response (CAL-120): 83.7% | normalised response (MDA-MB-453): 75% | normalised response (Hs578T): 78.2% | normalised response (BT-549): 61.8% | normalised response (SK-BR-3): 47.4% | normalised response (HCC1599): 65.7% | normalised response (MFM-223): 74.3% | normalised response (CAL-51): 88% | normalised response (HDQ-P1): 69.6% | normalised response (MDA-MB-468): 72.5% | normalised response (HCC1937): 51.6% | normalised response (BT-474): 68.2% | normalised response (CAL-148): 83.7% | normalised response (CAL-85-1): 86.3% | normalised response (HCC1143): 66.2% | normalised response (MCF-10A): 59.2% | normalised response (MDA-MB-231): 74.5% | normalised response (DU-4475): 65.6%

CN(C)CCOc1ccc(/C(=C(/CCCl)c2ccccc2)c2ccccc2)cc1 [Toremifene] (10000 nM)
normalised response (CAL-120): 90.7% | normalised response (MDA-MB-453): 63.8% | normalised response (Hs578T): 82.1% | normalised response (BT-549): 81.8% | normalised response (SK-BR-3): 67.1% | normalised response (HCC1599): 77.9% | normalised response (MFM-223): 48.4% | normalised response (CAL-51): 98.3% | normalised response (HDQ-P1): 87.7% | normalised response (MDA-MB-468): 75.5% | normalised response (HCC1937): 49.1% | normalised response (BT-474): 68.5% | normalised response (CAL-148): 86.7% | normalised response (CAL-85-1): 85.2% | normalised response (HCC1143): 96.8% | normalised response (MCF-10A): 63.5% | normalised response (MDA-MB-231): 65.9% | normalised response (DU-4475): 88%

CNC(=O)c1cc(Oc2ccc(NC(=O)Nc3ccc(Cl)c(C(F)(F)F)c3)c(F)c2)ccn1 [Regorafenib] (10000 nM)
normalised response (CAL-120): 49.8% | normalised response (MDA-MB-453): 59.1% | normalised response (Hs578T): 47% | normalised response (BT-549): 43.7% | normalised response (SK-BR-3): 51.7% | normalised response (HCC1599): 36.5% | normalised response (MFM-223): 35.9% | normalised response (CAL-51): 73.8% | normalised response (HDQ-P1): 57.4% | normalised response (MDA-MB-468): 29.8% | normalised response (HCC1937): 50.1% | normalised response (BT-474): 50% | normalised response (CAL-148): 66.7% | normalised response (CAL-85-1): 89.3% | normalised response (HCC1143): 77.8% | normalised response (MCF-10A): 46.2% | normalised response (MDA-MB-231): 61.2% | normalised response (DU-4475): 58.2%

COc1cc2/c(=N/c3ccc(Br)cc3F)nc[nH]c2cc1OCC1CCN(C)CC1 [Vandetanib] (1000 nM)
normalised response (CAL-120): 89.6% | normalised response (MDA-MB-453): 74.5% | normalised response (Hs578T): 91.7% | normalised response (BT-549): 95% | normalised response (SK-BR-3): 74.3% | normalised response (HCC1599): 76.2% | normalised response (MFM-223): 64.9% | normalised response (CAL-51): 99.1% | normalised response (HDQ-P1): 56.3% | normalised response (MDA-MB-468): 69.9% | normalised response (HCC1937): 78% | normalised response (BT-474): 79.3% | normalised response (CAL-148): 78.9% | normalised response (CAL-85-1): 58.9% | normalised response (HCC1143): 86.4% | normalised response (MCF-10A): 27.1% | normalised response (MDA-MB-231): 79.1% | normalised response (DU-4475): 87.8%

O=C(Nc1ccncc1)C(=O)c1cn(Cc2ccc(Cl)cc2)c2ccccc12 [Indibulin] (10000 nM)
normalised response (CAL-120): 60.7% | normalised response (MDA-MB-453): 66.9% | normalised response (Hs578T): 51.4% | normalised response (BT-549): 39.2% | normalised response (SK-BR-3): 27% | normalised response (HCC1599): 73.1% | normalised response (MFM-223): 62.5% | normalised response (CAL-51): 18.4% | normalised response (HDQ-P1): 72% | normalised response (MDA-MB-468): 37% | normalised response (HCC1937): 69% | normalised response (BT-474): 73.5% | normalised response (CAL-148): 103% | normalised response (CAL-85-1): 43% | normalised response (HCC1143): 47.9% | normalised response (MCF-10A): 76.1% | normalised response (MDA-MB-231): 53.8% | normalised response (DU-4475): 79%

O=P1(N(CCCl)CCCl)NCCCO1 (configuration not stated) [Cyclophosphamide] (40000 nM)
normalised response (CAL-120): 94.4% | normalised response (MDA-MB-453): 101% | normalised response (Hs578T): 106% | normalised response (BT-549): 100% | normalised response (SK-BR-3): 108% | normalised response (HCC1599): 92.9% | normalised response (MFM-223): 108% | normalised response (CAL-51): 131% | normalised response (HDQ-P1): 96.8% | normalised response (MDA-MB-468): 93.2% | normalised response (HCC1937): 95.8% | normalised response (BT-474): 92.8% | normalised response (CAL-148): 101% | normalised response (CAL-85-1): 98.8% | normalised response (HCC1143): 105% | normalised response (MCF-10A): 109% | normalised response (MDA-MB-231): 99.9% | normalised response (DU-4475): 102%
